Measurements reported in patent US20090181910A1, “METHOD OF PREVENTION AND ALLEVIATION OF TOXICITY BY MODULATION OF IRF3” (priority 2006, published 2009).

Tested on: CRBPII
Assay: RAW 264.7 Q-PCR: CRBPII
Format: cell-based, murine
Settings: RXRα overexpressing RAW 264.7 cells; FIG. 10d

polyinosinic:polycytidylic acid [polyI:C]
LG268 induced CRBPII: unable to repress LG268 induced CRBPII
